6 molecules from paper PMC11562385 (RSC Chemical Biology, 2024) can be followed below.

The target in one data set is T1, PD1:PDL1 interaction (Homo sapiens, UniProt Q15116).
T1 construct: purchased BPS Bioscience 72005
Kind of data set: PD1/PDL1 immunoblocking ELISA (BPS Bioscience kit cat # 72005). The format is binding. As to conditions: for LE (ligand efficiency): LE = -RTln(EC50)/HA, HA = non-hydrogen atoms omitting the strap (RWV•••VWE). Background: In an ELISA, binding on a coated surface is turned into a signal by an enzyme label.

The nature of data set [1]: Variable-temperature CD melting curves (CD-melts at 228±2 nm and 202±2 nm), individual and global two-state fits. The format is physicochemical. As to conditions: for ΔGF0: CD-melt at 228±2 nm, individual two-state Gibbs-Helmholtz fit (Origin 9.0), phosphate buffer 15 mM pH 6.5 ± MeOH; for ΔGF0 / DHm (fitted value, results from OriginPro) / Tm (fitted value, results from OriginPro): 0-95 °C; for Tm / Hairpin %-fold 291K / Hairpin %-fold 310K: Table S5, individual fit; for Tm: 228±2 nm; for -TΔSF0 / ΔCpF0 / ΔHF0 / ΔHm: as E16; for VT-CD %-fold: folded fraction (χF) at 25 °C from CD-melts, (R) regular / (B) bulged fold; for VT-CD %-fold / VT-CD Tm (°C): phosphate buffer 15 mM pH 6.5, up to 20% MeOH; for VT-CD Tm (°C): melting temperature from CD-melts; for DHm (fitted value, results from OriginPro) / Tm (fitted value, results from OriginPro): two-state fit of the CD melt θ - θcoil(95) vs T, peptide c 3.2e-5 to 5e-5 M; for Tm 228 nm Indiv.: exciton band 228 nm; for %fold 291K: fraction folded at 291 K from the two-state fit of the CD melt. The method, boiled down:
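Far-UV CD melts (0 to 95 °C) at 15-120 µM peptide in 15 mM phosphate buffer, concentration set by Trp/Tyr absorbance at 280 nm; CD-exciton intensity taken as %-folding probe. Melting curves fitted individually and globally to a two-state model.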

The structures appear in SMILES notation. Where two headings read alike, the source gives them in different places. Bridge positions count the residues as written; N and C are the ends. Peptide text beside a SMILES is read from it. Bounds are passed on as bounds.

T1 sequence (Q15116 25-167 limits assumed): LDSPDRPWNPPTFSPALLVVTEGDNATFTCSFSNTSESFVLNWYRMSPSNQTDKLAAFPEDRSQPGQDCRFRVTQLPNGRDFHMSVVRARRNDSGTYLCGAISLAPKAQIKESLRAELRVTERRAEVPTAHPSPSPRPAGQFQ

`CSCC[C@H](NC(=O)[C@H](CC(=O)O)NC(=O)CNC(=O)[C@H](CCCNC(=N)N)NC(=O)[C@H](Cc1ccc(O)cc1)NC(=O)[C@H](CC(=O)O)NC(=O)[C@H](CCCNC(=N)N)NC(=O)[C@H](CCCNC(=N)N)NC(=O)[C@H](C)NC(=O)[C@@H](NC(=O)[C@H](Cc1c[nH]c2ccccc12)NC(=O)[C@@H](N)CCCNC(=N)N)C(C)C)C(=O)NCC(=O)N[C@@H](Cc1ccccc1)C(=O)N[C@@H](CC(N)=O)C(=O)N[C@@H](Cc1ccc(O)cc1)C(=O)N[C@@H](Cc1c[nH]c2ccccc12)C(=O)N[C@H](C(=O)N[C@@H](Cc1c[nH]c2ccccc12)C(=O)N[C@@H](CCC(=O)O)C(=O)O)C(C)C` [2j] (H-RWVARRDYRGDMGFNYWVWE-OH): the “LE (ligand efficiency)” value at PD1:PDL1 interaction is 0.07. The EC50 (usually the concentration at which the effect is half-maximal) on PD1:PDL1 interaction (PD1:PDL1 inhibition EC50, ELISA, PDL1-coated plate, biotin-labeled human PD-1, 2 h rt, chemiluminescence, Hill fit, mean ± SD, n = 3, SD) amounted to 100 ± 10 nM. Besides, in data set [1], the ΔGF0 is -1.63 ± 0.01 kcal/mol, the Tm is listed as 57.8 oC, the “Hairpin %-fold 310K” value is listed as 84 ± 1% and the “-TΔSF0” value is 14.3 ± 0.09 kcal/mol. In data set [1], the ΔCpF0 is on record as -29 ± 3 cal.deg-1.mol-1, the ΔHF0 is -15.9 ± 0.02 kcal/mol, the ΔHm is -16.8 ± 0.03 kcal/mol and the VT-CD %-fold is 97% (B). Further, the “VT-CD Tm (°C)” value in data set [1] is 58 °C. Moreover, in data set [1] (291 K), the “Hairpin %-fold 291K” value is 97 ± 1%. Also, in data set [1] (l 0.1 cm), the “DHm (fitted value, results from OriginPro)” value was -16.8394 kcal/mol and the “Tm (fitted value, results from OriginPro)” value is 330.952 K.

Consider `CSCC[C@@H]1NC(=O)[C@H](CC(=O)O)NC(=O)[C@H](Cc2ccccc2)NC(=O)[C@H](CCCNC(=N)N)NC(=O)[C@H](Cc2ccc(O)cc2)NC(=O)[C@H](CC(=O)O)NC(=O)[C@H](CCCNC(=N)N)NC(=O)[C@H](CCCNC(=N)N)NC(=O)[C@H](C)NC(=O)[C@@H](NC(=O)[C@H](Cc2c[nH]c3ccccc23)NC(=O)[C@@H](N)CCCNC(=N)N)CSSC[C@@H](C(=O)N[C@@H](Cc2c[nH]c3ccccc23)C(=O)N[C@@H](CCC(=O)O)C(=O)O)NC(=O)[C@H](Cc2c[nH]c3ccccc23)NC(=O)[C@H](Cc2ccc(O)cc2)NC(=O)[C@H](CC(=O)O)NC(=O)[C@H](Cc2ccccc2)NC(=O)CNC1=O` [2l] (H-RWCARRDYRFDMGFDYWCWE-OH; disulfide 3-18), for which the half-maximal effective concentration (EC50) on PD1:PDL1 interaction (ELISA, mean of three independent experiments, read-out: EC50 Value) was determined as 584 nM. Also, the “LE (ligand efficiency)” value on PD1:PDL1 interaction was found to be 0.06. In data set [1], the ΔGF0 is -0.77 ± 0.01 kcal/mol, the Tm is on record as 66.0 oC, the “Hairpin %-fold 310K” value is 71 ± 1% and the “-TΔSF0” value came out at 4.69 ± 0.05 kcal/mol. Moreover, in data set [1], the ΔCpF0 is on record as -44 ± 2 cal.deg-1.mol-1, the ΔHF0 is -5.46 ± 0.05 kcal/mol and the ΔHm was -7.29 ± 0.04 kcal/mol. Besides, in data set [1] (291 K), the “Hairpin %-fold 291K” value is 82 ± 1%. Also, in data set [1] (l 0.1 cm), the “DHm (fitted value, results from OriginPro)” value is -7.28521 kcal/mol and the “Tm (fitted value, results from OriginPro)” value was 339.181 K.

`CSCC[C@H](NC(=O)CNC(=O)[C@H](CCC(=O)O)NC(=O)[C@H](CCCNC(=N)N)NC(=O)[C@H](C)NC(=O)[C@@H](NC(=O)[C@H](Cc1c[nH]c2ccccc12)NC(=O)[C@@H](N)CCCNC(=N)N)C(C)C)C(=O)N[C@@H](CC(N)=O)C(=O)N[C@H](C(=O)N[C@@H](CC(=O)O)C(=O)N[C@@H](Cc1c[nH]c2ccccc12)C(=O)N[C@@H](Cc1ccc(O)cc1)C(=O)N[C@@H](Cc1ccccc1)C(=O)N[C@@H](CC(=O)O)C(=O)N[C@@H](Cc1ccc(O)cc1)C(=O)N[C@@H](Cc1c[nH]c2ccccc12)C(=O)N[C@@H](Cc1c[nH]cn1)C(=O)N[C@@H](Cc1c[nH]c2ccccc12)C(=O)N[C@@H](CCC(=O)O)C(=O)O)[C@@H](C)O` [2n] (H-RWVAREGMNTDWYFDYWHWE-OH): at PD1:PDL1 interaction, the “LE (ligand efficiency)” value came out at 0.07. In addition, in data set [1], the ΔGF0 was 0.46 ± 0.01 kcal/mol, the Tm is -5.1 oC, the “Hairpin %-fold 310K” value was found to be 23 ± 2% and the “-TΔSF0” value turned out to be 6.11 ± 0.19 kcal/mol. Also, in data set [1], the ΔCpF0 is on record as -97 ± 14 cal.deg-1.mol-1, the ΔHF0 is -5.65 ± 0.18 kcal/mol, the ΔHm was -2.75 ± 0.80 kcal/mol and the VT-CD %-fold was 36% (B). Also, the “VT-CD Tm (°C)” value in data set [1] is <0 °C. Further, the “Hairpin %-fold 291K” value in data set [1] (291 K) is reported as 36 ± 2%. For the same molecule, the “χF (291 K) 228 nm Glob.” value in data set [1] (global fit, 228 nm, 291 K) turned out to be 0%. The “χF (291 K) 228 nm Indiv.” value in data set [1] (individual fit, 228 nm, 291 K) turned out to be 36%. Also, the “Tm 228 nm Indiv.” value in data set [1] (individual fit) is reported as -5.1 oC. In addition, in data set [1] (l 0.1 cm), the “DHm (fitted value, results from OriginPro)” value was -2.75455 kcal/mol and the “Tm (fitted value, results from OriginPro)” value was 268.058 K.

Consider `CSCC[C@H](NC(=O)CNC(=O)[C@H](CCC(=O)O)NC(=O)[C@H](CCCNC(=N)N)NC(=O)[C@H](C)NC(=O)[C@@H](NC(=O)[C@H](Cc1c[nH]c2ccccc12)NC(=O)[C@@H](N)CCCNC(=N)N)C(C)C)C(=O)N[C@@H](CC(N)=O)C(=O)N[C@H](C(=O)N[C@@H](CC(=O)O)C(=O)NCC(=O)N[C@@H](Cc1ccc(O)cc1)C(=O)N[C@@H](Cc1ccccc1)C(=O)N[C@@H](CC(=O)O)C(=O)N[C@@H](Cc1ccc(O)cc1)C(=O)N[C@@H](Cc1c[nH]c2ccccc12)C(=O)N[C@@H](Cc1c[nH]cn1)C(=O)N[C@@H](Cc1c[nH]c2ccccc12)C(=O)N[C@@H](CCC(=O)O)C(=O)O)[C@@H](C)O` [2o] (H-RWVAREGMNTDGYFDYWHWE-OH), for which the “LE (ligand efficiency)” value on PD1:PDL1 interaction is 0.07. Further, in data set [1], the ΔGF0 stood at 0.47 ± 0.01 kcal/mol, the Tm is 2.8 oC, the “Hairpin %-fold 310K” value was found to be 23 ± 1% and the “-TΔSF0” value came to 6.45 ± 0.02 kcal/mol. Also, in data set [1], the ΔCpF0 is -2 ± 1 cal.deg-1.mol-1, the ΔHF0 is -5.97 ± 0.01 kcal/mol, the ΔHm was -5.93 ± 0.03 kcal/mol and the VT-CD %-fold is listed as 50% (B). Moreover, the “VT-CD Tm (°C)” value in data set [1] is 3 °C. For the same molecule, the “Hairpin %-fold 291K” value in data set [1] (291 K) turned out to be 36 ± 1%. Besides, in data set [1] (l 0.1 cm), the “%fold 291K” value is 36%; the “DHm (fitted value, results from OriginPro)” value was -5.92662 kcal/mol; the “Tm (fitted value, results from OriginPro)” value amounted to 275.984 K. Moreover, the “Tm 228 nm Glob.” value in data set [1] (global fit (shared maximum molar ellipticity), 228 nm) is 14.6 oC. Further, the “Tm 202 nm Glob.” value in data set [1] (global fit, 202 nm) is -18.3 oC. In addition, the “χF (291 K) 202 nm Glob.” value in data set [1] (global fit, 202 nm, 291 K) is on record as 19%. Further, the “χF (291 K) 228 nm Glob.” value in data set [1] (global fit, 228 nm, 291 K) was 47%. In data set [1] (individual fit, 202 nm, 291 K), the “χF (291 K) 202 nm Indiv.” value is reported as 38%. The “χF (291 K) 228 nm Indiv.” value in data set [1] (individual fit, 228 nm, 291 K) is given as 36%. Moreover, the “Tm 228 nm Indiv.” value in data set [1] (individual fit) worked out at 2.8 oC. For the same molecule, the “Tm 202 nm Indiv.” value in data set [1] (individual fit, β-bulge band 202 nm) was found to be 7.9 oC.

`CC[C@H](C)[C@H](NC(=O)[C@H](Cc1ccc(O)cc1)NC(=O)[C@H](Cc1c[nH]c2ccccc12)NC(=O)[C@H](Cc1ccc(O)cc1)NC(=O)[C@H](CC(N)=O)NC(=O)CNC(=O)[C@H](Cc1ccc(O)cc1)NC(=O)[C@H](C)NC(=O)[C@H](CCCNC(=N)N)NC(=O)[C@H](C)NC(=O)[C@@H](NC(=O)[C@H](Cc1c[nH]c2ccccc12)NC(=O)[C@@H](N)CCCNC(=N)N)C(C)C)C(=O)N[C@@H](CC(=O)O)C(=O)N[C@H](C(=O)N[C@@H](Cc1c[nH]c2ccccc12)C(=O)N[C@@H](Cc1c[nH]cn1)C(=O)N[C@@H](Cc1c[nH]c2ccccc12)C(=O)N[C@@H](CCC(=O)O)C(=O)O)C(C)C` [2q] (H-RWVARAYGNYWYIDVWHWE-OH): the “LE (ligand efficiency)” value on PD1:PDL1 interaction was 0.07. Further, in data set [1], the VT-CD %-fold entry was “β-structure”. Further, the “fold by CD signature (in words)” value in data set [1] (no hairpin exciton, no fit possible) is on record as “β-sheet structure”.

With `CC[C@H](C)[C@H](NC(=O)[C@H](Cc1ccc(O)cc1)NC(=O)CNC(=O)[C@H](Cc1ccc(O)cc1)NC(=O)[C@H](CC(N)=O)NC(=O)CNC(=O)[C@H](Cc1ccc(O)cc1)NC(=O)[C@H](C)NC(=O)[C@H](CCCNC(=N)N)NC(=O)[C@H](C)NC(=O)[C@@H](NC(=O)[C@H](Cc1c[nH]c2ccccc12)NC(=O)[C@@H](N)CCCNC(=N)N)C(C)C)C(=O)N[C@@H](CC(=O)O)C(=O)N[C@H](C(=O)N[C@@H](Cc1c[nH]c2ccccc12)C(=O)N[C@@H](Cc1c[nH]cn1)C(=O)N[C@@H](Cc1c[nH]c2ccccc12)C(=O)N[C@@H](CCC(=O)O)C(=O)O)C(C)C` [2r] (H-RWVARAYGNYGYIDVWHWE-OH), the “LE (ligand efficiency)” value at PD1:PDL1 interaction amounted to 0.08. In data set [1], the ΔGF0 is -1.15 ± 0.01 kcal/mol, the Tm was 67.6 oC, the “Hairpin %-fold 310K” value is 80 ± 1% and the “-TΔSF0” value was found to be 7.13 ± 0.3 kcal/mol. Further, in data set [1], the ΔCpF0 is listed as -44 ± 9 cal.deg-1.mol-1, the ΔHF0 is -8.29 ± 0.3 kcal/mol, the ΔHm is -10.2 ± 0.2 kcal/mol and the VT-CD %-fold is listed as 91% (B). The “Hairpin %-fold 291K” value in data set [1] (291 K) is recorded as 91 ± 1%. In data set [1] (c 6.2e-5 M, l 0.1 cm), the “%fold 291K” value is listed as 91%. Also, the “DHm (fitted value, OriginPro)” value in data set [1] (two-state fit of the CD melt (θ - θcoil(95) vs T, 0-95 °C), l 0.1 cm, enthalpy of folding at Tm) was -10.1866 kcal/mol.
